Assay results as given in ChEMBL document CHEMBL4118115, “Synthetic analogues of durantoside I from Citharexylum spinosum L. and their cytotoxic activity” (Bioorg Med Chem Lett, 2018).

Legend:
HT-29 = test: Cytotoxicity against human HT-29 cells assessed as reduction in cell viability by Sulforhodamine B assay; type: functional, cell-based
KB = test: Cytotoxicity against human KB cells assessed as reduction in cell viability by Sulforhodamine B assay; type: functional, cell-based
P388 = test: Cytotoxicity against mouse P388 cells assessed as reduction in cell viability by Sulforhodamine B assay; type: functional, cell-based
MCF7 = test: Cytotoxicity against human MCF7 cells assessed as reduction in cell viability by Sulforhodamine B assay; type: functional, cell-based
A549 = test: Cytotoxicity against human A549 cells assessed as reduction in cell viability by Sulforhodamine B assay; type: functional, cell-based
[1] = Cytotoxicity against rat ASK cells assessed as reduction in cell viability by Sulforhodamine B assay; type: functional, cell-based
HEK293 = test: Cytotoxicity against HEK293 cells assessed as reduction in cell viability by Sulforhodamine B assay; type: cell-based; settings: Homo sapiens

COC(=O)C1=CO[C@@H](O[C@H]2O[C@@H](CO)[C@H](O)[C@@H](O)[C@@H]2O)[C@@H]2[C@@](C)(O)[C@@H](OC(=O)/C=C/c3ccccc3)C[C@]12O
IC50 (HT-29): > 50 µM
IC50 (KB): > 50 µM
IC50 (P388): > 50 µM
IC50 (MCF7): > 50 µM
IC50 (A549): > 50 µM
IC50 [1]: > 50 µM
IC50 (HEK293): > 50 µM

COC(=O)C1=CO[C@@H](O[C@H]2O[C@@H](CO[Si](C)(C)C(C)(C)C)[C@H](OC(C)=O)[C@@H](OC(C)=O)[C@@H]2OC(C)=O)[C@@H]2[C@@](C)(O)[C@@H](OC(=O)/C=C/c3ccccc3)C[C@]12O
IC50 (HT-29): > 50 µM
IC50 (KB): > 50 µM
IC50 (P388): 3.11 µM
IC50 (MCF7): 43.3 µM
IC50 (A549): > 50 µM
IC50 [1]: > 50 µM
IC50 (HEK293): 31.8 µM

COC(=O)C1=CO[C@@H](O[C@H]2O[C@@H](CO[Si](c3ccccc3)(c3ccccc3)C(C)(C)C)[C@H](OC(C)=O)[C@@H](OC(C)=O)[C@@H]2OC(C)=O)[C@@H]2[C@@](C)(O)[C@@H](OC(=O)/C=C/c3ccccc3)C[C@]12O
IC50 (HT-29): 37.2 µM
IC50 (KB): > 50 µM
IC50 (P388): 6.11 µM
IC50 (MCF7): > 50 µM
IC50 (A549): > 50 µM
IC50 [1]: > 50 µM
IC50 (HEK293): > 50 µM

COC(=O)C1=CO[C@@H](O[C@H]2O[C@@H](COC(C)=O)[C@H](OC(C)=O)[C@@H](OC(C)=O)[C@@H]2OC(C)=O)[C@@H]2[C@@](C)(OC(C)=O)[C@@H](OC(=O)/C=C/c3ccccc3)C[C@]12O
IC50 (HT-29): > 50 µM
IC50 (KB): > 50 µM
IC50 (P388): > 50 µM
IC50 (MCF7): > 50 µM
IC50 (A549): > 50 µM
IC50 [1]: > 50 µM
IC50 (HEK293): 45 µM

COC(=O)C1=CO[C@@H](O[C@H]2O[C@@H](CO[Si](c3ccccc3)(c3ccccc3)C(C)(C)C)[C@H](OC(C)=O)[C@@H](OC(C)=O)[C@@H]2OC(C)=O)[C@@H]2[C@@](C)(O)[C@@H](OC(C)=O)C[C@]12O
IC50 (HT-29): 35 µM
IC50 (KB): 14.7 µM
IC50 (P388): 3.67 µM
IC50 (MCF7): 9.01 µM
IC50 (A549): 8.2 µM
IC50 [1]: 9.19 µM
IC50 (HEK293): 7.4 µM

COC(=O)C1=CO[C@@H](O[C@H]2O[C@@H](COC(C)=O)[C@H](OC(C)=O)[C@@H](OC(C)=O)[C@@H]2OC(C)=O)[C@@H]2[C@@](C)(O)[C@@H](OC(=O)/C=C/c3ccccc3)C[C@]12O
IC50 (HT-29): > 50 µM
IC50 (KB): > 50 µM
IC50 (P388): > 50 µM
IC50 (MCF7): > 50 µM
IC50 (A549): > 50 µM
IC50 [1]: > 50 µM
IC50 (HEK293): > 50 µM

Cc1c2ccncc2c(C)c2c1[nH]c1ccccc12 [ELLIPTECINE]
IC50 (HT-29): 2 µM
IC50 (KB): 2.15 µM
IC50 (P388): 1.84 µM
IC50 (MCF7): 1.99 µM
IC50 (A549): 1.96 µM
IC50 [1]: 2.02 µM
IC50 (HEK293): 1.9 µM
